Measured values: a compilation of properties of binary mixtures (doi:10.3390/app10238342)

Assay: xn = mol fraction of the nth substance listed
Conditions: 96.7 kPa

CS(C)=O + CC(=O)[O-].CCCCCCn1cc[n+](C)c1
x2 = 0
Conditions	viscosity [mPa·s]
303.15 K	1.81
308.15 K	1.66
313.15 K	1.52
318.15 K	1.4
323.15 K	1.3
328.15 K	1.2
338.15 K	1.04

CC(=O)[O-].CCCCCCn1cc[n+](C)c1 + CS(C)=O
viscosity [mPa·s]
Conditions	x1 = 0.057	x1 = 0.187	x1 = 0.257	x1 = 0.341	x1 = 0.446	x1 = 0.58	x1 = 0.757	x1 = 0.868	x1 = 1
303.15 K	2.7	4.6	9.2	18.7	41	74	250	420	800
308.15 K	2.46	–	–	15.8	32	60	182	290	530
313.15 K	–	3.7	6.9	13	27	–	133	212	370
318.15 K	2	3.2	5.9	10.8	–	41	–	156	260
323.15 K	1.86	2.9	5.2	9.3	17.9	35	78	115	190
328.15 K	1.72	2.6	4.7	8.1	14.7	29	60	88	145
333.15 K	1.58	2.31	4.2	–	–	25	47	68	110
338.15 K	1.47	–	3.6	6.4	10.9	21.3	–	55	88
